Measured values published in patent publication US5441935A, “Growth factor receptors” (Imperial Cancer Research Technology Ltd., priority 1987, dated 1995).
Where two headings read alike, the source gives them in different places. Non-standard residues stand in square brackets, D forms with d. Residues, ends and D or L forms follow the SMILES beside them. No end group written: not given here. Tyr(3-I) = N[C@@H](Cc1ccc(O)c(I)c1)C(=O)O

Legend:
[1] = target: T1, Mr 75000-85000 protein (Mus musculus, UniProt P21729); experiment: ^125 I-GRP affinity labelling (EGS cross-linking) of the Mr 75000-85000 protein in Swiss 3T3 cells; format: binding
T1 construct: endogenous in cells; host or cells: Swiss 3T3 cells (intact, confluent and quiescent)
T1 sequence (P21729 whole entry): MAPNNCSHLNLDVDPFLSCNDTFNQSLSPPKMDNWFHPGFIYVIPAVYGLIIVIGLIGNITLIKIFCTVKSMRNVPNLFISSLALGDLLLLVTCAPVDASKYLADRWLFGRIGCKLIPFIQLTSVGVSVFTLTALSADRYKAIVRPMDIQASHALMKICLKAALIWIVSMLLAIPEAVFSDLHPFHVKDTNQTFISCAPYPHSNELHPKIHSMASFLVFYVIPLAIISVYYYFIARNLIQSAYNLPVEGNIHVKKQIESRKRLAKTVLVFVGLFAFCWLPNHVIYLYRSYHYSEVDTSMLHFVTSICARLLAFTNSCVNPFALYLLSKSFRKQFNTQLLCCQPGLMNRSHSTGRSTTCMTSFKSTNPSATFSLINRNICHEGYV
Protocol: After 2.5 h the cells were washed three times at 15° C. with phosphate buffered saline (PBS) and then incubated for 15 min at 15° C. in 1 ml of binding medium, pH 7.4 in the presence of the appropriate cross-linking agent at the concentration indicated. The cross-linking agents (EGS, DSS, DSP and BSCOES) were dissolved in dimethyl sulphoxide immediately prior to use and were added to medium to give a final concentration of dimethylsulphoxide of 1-2%. The cultures were rapidly rinsed twice with PBS at 4° C. and solubilized in 0.1 ml of 2× sample buffer 0.2M Tris-HCl, pH 6.8, 10% (w/v) glycerol, 6% sodium dodecyl sulphate (SDS) (w/v) 4% β-mercaptoethanol (v/v) and 2 mM ethylenediaminetetraacetic acid. Samples were immediately heated at 100° C. for 3- 5 min and analysed by either one or two-dimensional gel electrophoresis.
Slab gel electrophoresis was performed using 7.5% acrylamide in the separating gel and 5% in the stacking gel, and 0.1% SDS (31). After electrophoresis gels were stained, destained and dried down onto paper for autoradiography with Fuji X-ray film (Fuji Photo Film Co. Ltd. Japan). Dried gels were exposed to film for 4-8 days. Two-dimensional gel electrophoresis was performed as described by O'Farrell (32) using isoelectric focusing in the 1st dimension and SDS-polyacrylamide gel electrophoresis (SDS-PAGE) (8% polyacrylamide) in the second dimension. The samples prepared for isoelectric focusing containing 1.4% LKB ampholytes, pH 5-7, plus 0.6% LKD ampholytes, pH,3.5-10, 6M urea, and 2% Nonidet P-40. The Mr 75000-85000 band from autoradiograms was scanned using a Joyce-Loebl double beam densitometer and the areas under specific peaks were measured with a Hewlett-Packard digitizer.
FIG. 4. […] Values are expressed as percentage of the specific binding obtained in the absence of antagonists. […] Each point represents the mean of 3 determinations. […] Specific binding (B) is expressed in pmol/10^6 cells and is shown in a double-reciprocal plot. Each point represents the mean of duplicate determinations. […] After 2 hours, the cultures were washed twice with binding medium then incubated in 1 ml containing 6 mM ethylene glycol bis (succinimidylsuccinate) (EGS) at pH 7.4 for 15 minutes at 15° C. The cultures were then washed twice with cold phosphate-buffered saline and solubilised in 0.1 ml of 2× sample buffer, then immediately heated at 100° C. for 5 minutes and electrophoresed on a 10% polyacrylamide gel.
After the incubation period cultures were treated with […] EGS as described in Materials and Methods. Each value is expressed as a percentage of the level of the Mr 75000-85000 protein obtained with no additions (-). Other experimental details are as described in Materials and Methods.

[2] = test system: Swiss 3T3 cells; experiment: DNA synthesis by [^3 H]thymidine incorporation in Swiss 3T3 cells (GRP-induced mitogenesis); format: cell-based, mouse; details: for Ability to inhibit mitogenesis stimulated by GRP (relative potency): substance P antagonists tested at 50 μM
Protocol: Cell culture procedure (33), assays of DNA synthesis by ^3 H-thymidine incorporation (34) and ^125 I-GRP binding to intact cells (13) were performed as described previously.
FIG. 3. Inhibition of GRP-induced DNA synthesis by [DPro^2 ]spantide (A) and [DPhe^5 ]spantide (D). […] After 40 hours DNA synthesis was estimated by [^3 H]thymidine incorporation into acid-precipitable material. […] Each point represents the mean of duplicate determinations. […] Values are expressed as a percentage of [^3 H]thymidine incorporation obtained in the absence of antagonists (100%=8.6×10^5 cpm per dish). Each point represents the mean of 4 determinations.

[3] = test system: Swiss 3T3 cells; details: reference (13); cited from earlier work
[4] = target: T2, GRP receptor (Mus musculus, UniProt P21729); details: reference (13); cited from earlier work
T2 construct: endogenous in cells; host or cells: Swiss 3T3 cells (intact, confluent and quiescent)
T2 sequence (P21729 whole entry): as above

[5] = ^125 I-GRP 0.5 nM, 15° C., 2.5 h, EGS, each addition at its own concentration

Molecule	Mr 75000-85000 protein % of control [1, 5]	other results
CC(C)C[C@H](NC(=O)[C@H](CC(C)C)NC(=O)[C@@H](Cc1c[nH]c2ccccc12)NC(=O)[C@H](Cc1ccccc1)NC(=O)[C@@H](Cc1c[nH]c2ccccc12)NC(=O)[C@H](CCC(N)=O)NC(=O)[C@H](CCC(N)=O)NC(=O)[C@@H]1CCCN1C(=O)[C@H](CCCCN)NC(=O)[C@H]1CCCN1C(=O)[C@H](N)CCCNC(=N)N)C(N)=O [Antagonist A, D-Arg-D-Pro-Lys-Pro-Gln-Gln-D-Trp-Phe-D-Trp-Leu-Leu-NH2] (H-[dR][dP]KPQQ[dW]F[dW]LL-NH2)	9.7 % of control	
CC(C)C[C@H](NC(=O)[C@H](CC(C)C)NC(=O)[C@@H](Cc1c[nH]c2ccccc12)NC(=O)[C@H](Cc1ccccc1)NC(=O)[C@@H](Cc1c[nH]c2ccccc12)NC(=O)[C@H](CCC(N)=O)NC(=O)[C@H](CCC(N)=O)NC(=O)[C@@H]1CCCN1C(=O)[C@H](CCCCN)NC(=O)[C@@H]1CCCN1C(=O)[C@H](N)CCCNC(=N)N)C(N)=O [B, DArgProLysProGlnGlnDTrpPheDTrpLeuLeuNH2] (H-[dR]PKPQQ[dW]F[dW]LL-NH2)		Antagonist activity against GRP-stimulated mitogenesis ([2]; even at 100 μM): no antagonist activity; Ability to inhibit mitogenesis stimulated by GRP (relative potency) [2]: less potent than either A or D
CSCC[C@H](NC(=O)[C@H](CC(C)C)NC(=O)[C@H](Cc1cnc[nH]1)NC(=O)CNC(=O)[C@@H](NC(=O)[C@H](C)NC(=O)[C@H](Cc1c[nH]c2ccccc12)NC(=O)[C@H](CCC(N)=O)NC(=O)[C@H](CC(N)=O)NC(=O)CNC(=O)[C@H](CC(C)C)NC(=O)[C@H](CCCN=C(N)N)NC(=O)[C@H](CCC(N)=O)NC(=O)[C@@H]1CCC(=O)N1)C(C)C)C(N)=O [Bombesin]		Mr 75000-85000 protein % of control [1]: 0.5
C[C@H](N)C(=O)NCC(=O)N[C@H]1CSSC[C@@H](C(=O)O)NC(=O)[C@H](CO)NC(=O)[C@H]([C@@H](C)O)NC(=O)[C@H](Cc2ccccc2)NC(=O)[C@H]([C@@H](C)O)NC(=O)[C@H](CCCCN)NC(=O)[C@H](Cc2c[nH]c3ccccc23)NC(=O)[C@H](Cc2ccccc2)NC(=O)[C@H](Cc2ccccc2)NC(=O)[C@H](CC(N)=O)NC(=O)[C@H](CCCCN)NC1=O [Somatostatin]	97 % of control	
CSCC[C@H](NC(=O)[C@H](CC(C)C)NC(=O)CNC(=O)[C@H](Cc1ccccc1)NC(=O)[C@H](Cc1ccccc1)NC(=O)[C@H](CCC(N)=O)NC(=O)[C@H](CCC(N)=O)NC(=O)[C@@H]1CCCN1C(=O)[C@H](CCCCN)NC(=O)[C@@H]1CCCN1C(=O)[C@@H](N)CCCNC(=N)N)C(N)=O [Substance P]	91 % of control	
NC(=O)CC[C@@H]1NC(=O)[C@H](Cc2ccccc2)NC(=O)[C@H](Cc2ccc(O)cc2)NC(=O)[C@@H](N)CSSC[C@@H](C(=O)N2CCC[C@H]2C(=O)N[C@@H](CCCN=C(N)N)C(=O)NCC(N)=O)NC(=O)[C@H](CC(N)=O)NC1=O [Vasopressin]	94 % of control	
CSCC[C@H](NC(=O)[C@H](CC(C)C)NC(=O)[C@H](Cc1c[nH]cn1)NC(=O)CNC(=O)[C@@H](NC(=O)[C@H](C)NC(=O)[C@H](Cc1c[nH]c2ccccc12)NC(=O)[C@H](Cc1c[nH]cn1)NC(=O)[C@H](CC(N)=O)NC(=O)CNC(=O)[C@H](CCCNC(=N)N)NC(=O)[C@@H]1CCCN1C(=O)[C@H](Cc1ccc(O)c(I)c1)NC(=O)[C@H](CCSC)NC(=O)[C@H](CCCCN)NC(=O)[C@H](C)NC(=O)[C@H](CC(C)C)NC(=O)[C@@H](NC(=O)[C@@H](NC(=O)CNC(=O)CNC(=O)CNC(=O)[C@@H](NC(=O)[C@H](CO)NC(=O)[C@@H](NC(=O)[C@@H]1CCCN1C(=O)[C@H](C)N)C(C)C)C(C)C)[C@@H](C)O)C(C)C)C(C)C)C(N)=O [^125 I-GRP] (H-APVSVGGGTVLAKM[Tyr(3-I)]PRGNHWAVGHLM-NH2; N-terminus and C-terminus assumed)		Kd ([1]; 15° C., 2.5 h, EGS 6 mM, read-out: Kd from double-reciprocal plot of cross-linking of ^125 I-GRP to the Mr 75000-85000 band): 1 nM
EGF: epidermal growth factor	94 % of control	
HArgGlyGlnDTrpPheGlyAsp(OtBu)2 [J]		Ability to inhibit mitogenesis stimulated by GRP (relative potency) [2]: less potent than either A or D

The next lines start with results.

Mr 75000-85000 protein % of control [1, 5]	Molecule	other results
93 % of control	GRP (1-16): the 1-16 amino acid (amino-terminal) fragment of GRP (VPLPAGGGTVLTKMYP; Gastrin-releasing peptide; UniProt P07492 24-39, looked up, fragment)	Stimulation of DNA synthesis [3]: nor stimulates DNA synthesis; Inhibition of ^125 I-GRP binding [4]: neither inhibits ^125 I-GRP binding
0.4 % of control	GRP (14-27): the 14-27 amino acid fragment of GRP (MYPRGNHWAVGHLM; ends and bridges not checked; UniProt P07492 37-50, looked up, fragment)	
90 % of control	Insulin: mitogen for Swiss 3T3 cells	
2 % of control	Litorin	
99 % of control	PDGF	
94 % of control	Substance K: neuropeptide	
